# Assay results from patent publication US12474337B2, “Therapeutic agent for autoimmune diseases or allergy, and method for screening for the therapeutic agent” (OSAKA UNIVERSITY, priority 2009, dated 2025).
# Tested on: dendritic cells
# Test: Transwell overlaid with type 1 collagen or HMVEC-dLy monolayer, chemotaxis to CCL21 with and without Sema3A, after myosin II or Rho kinase inhibition
# Assay type: cell-based, mouse
# Description: An uncoated Transwell (pore diameter 5.0 μm; Corning) was placed in a 24-well plate containing CCL21 or CSCL12 in 0.6 ml of RPM1 containing 0.1% BSA. 1×10^5 dendritic cells in 0.1 ml of solution were added to the upper well of the Transwell, and incubated for 3 hours at 37° C. The cells in the […] chamber were ablated for 5 minutes with 5 mM PBS-EDTA, and counted by Guava. Fibronectin ([…]), type 1 collagen (3.0 mg/ml) or lymphatic endothelial cells were laid over the membrane of the top chamber for purposes of in vitro migration assay. In brief, 2×10^4 SVEC4-10 or HMVEC-dLy cells were seeded on the top or bottom surface of a Transwell insert coated with 2 μg/ml of fibronectin. […]
# BMDC cells that had been treated for 30 minutes at 37° C. with 50 μM of blebbistatin or 30 μM of Y-27632 were applied to the upper chamber of a Transwell (pore diameter: 5 μm) overlaid with 3 mg/ml of type 1 collagen (left panel) and an HMVEC-dLy monolayer (right panel), and chemotaxis in response to CCL21 was measured in the […] chamber with and without Sema3A. The overall difference between groups was evaluated by one-way ANOVA. […]
# A Transwell test was performed by the following methods. […] The cells in the lower chamber were ablated for 5 minutes by treatment with 5 mM of PBS-EDTA, and counted by Guava ViaCount assay on a Guava PCA system. […]
SMILES,effect of Sema3A on dendritic cell trafficking after inhibitor treatment (DC cells treated 30 minutes at 37° C. with 50 μM blebbistatin),effect of Sema3A on dendritic cell trafficking after inhibitor treatment (DC cells treated 30 minutes at 37° C. with 30 μM Y-27632)
Cc1ccc2c(c1)C(=O)C1(O)CCN(c3ccccc3)C1=N2 (centres unmarked) [blebbistatin],disappeared,–
C[C@@H](N)[C@H]1CC[C@H](C(=O)Nc2ccncc2)CC1 [Y-27632],–,disappeared
